Assay results taken from patent publication US12350194B1, “Topical ocular delivery of fluids with controlled mass dosing and wireless communication” (Bausch + Lomb Ireland Limited, priority 2018, dated 2025).

What was measured:
eye of subjects = test: Presbyopia: pupil diameter after self-administered pilocarpine micro-dose; assay type: in vivo, human
Procedure: A 10 μl micro-dose of a 1% pilocarpine solution was self-administered using an electromagnetic actuated fluid delivery device, e.g., as described above, by three subjects to their own eye. The age range of the subjects was 52 years to 68 years, and all subjects were male. The pilocarpine micro-dose was self-administered by the subjects.
Baseline, pre-dose values of pupil diameter and near visual acuity in both eyes prior to dosing was measured for all subjects, and then following the baseline measurements, the subjects were dosed in only one eye (the eye with the poorer visual acuity) with the micro-dose pilocarpine solution. Approximately 45 to 60 minutes after dosing, pupil diameter and near visual acuity were again tested. Near visual acuity was measured using a Snellen card at a distance of 40 cm. A tabulation of results is given below in Table A.

[1] = system: patients with primary open angle glaucoma; test: Trial 2: intraocular pressure by Goldmann applanation tonometry; assay type: in vivo, human; settings: AcuStream vs standard eye dropper; Wilcoxon Ranked Sum test, p=0.3447
Procedure: Trial 2 compared the efficacy (dose volume equivalence) of 0.005% w/v latanoprost for intraocular pressure reduction when delivered via AcuStream™ (pre-trial calibration volume=9.2 μl) versus the standard eye dropper for topical drug delivery (approximate volume=30 μl).
Patients included in Trial 2 have previously been diagnosed with primary open angle glaucoma on the basis of intraocular pressure and visual field testing, fundus examination or optical coherence tomography (OCT) data and are currently on prostaglandin analog medical therapy. Patients with corneal abnormalities that would interfere with accurate IOP measurements with applanation tonometry, use of an oral or topical ophthalmic steroids within the past 14 days from screening date, any active ocular surface or anterior segment disease, or progressive field loss during the past year were excluded from the study. Thirteen men and five women participated in the trial. […]
After performing slit lamp examinations on each patient to verify eligibility and obtaining informed consent, intraocular pressure (IOP) was measured by a sole experienced examiner who was blind to the randomized conditions. […]
Latanoprost solution was administered by a sole ophthalmologist to both eyes of each patient, based on the pre-determined randomized condition.

SMILES | miotic effect in non-dosed eye (eye of subjects) | difference in IOP reduction between groups [1]
CC[C@@H]1C(=O)OC[C@@H]1Cc1cncn1C [pilocarpine] | no miotic effect | 
CC(C)OC(=O)CCC/C=C\C[C@@H]1[C@@H](CC[C@@H](O)CCc2ccccc2)[C@H](O)C[C@@H]1O [latanoprost] |  | no statistically significant differences
